From ChEMBL document CHEMBL1123870, “Limited nerve impulse blockade by "leashed" local anesthetics” (1987)

Assay: Tonic inhibition of compound action potential by 50% was determined in the absence of avidin in desheathed frog sciatic nerves
Type: functional
Conditions: Amphibia, Sciatic nerve; read-out: ED50 (the source's name)

**Q.** Which EC50 does the source give for `CCCCN(C(=O)CCCC[C@H]1SCC2NC(=O)NC21)c1ccc(C(=O)OCCN(C)C)cc1` (some centres not stated) here?
**A.** Its EC50 is 1.5 mM.

**Q.** For `CCN(CC)CCOC(=O)c1ccc(NC(=O)CCCC[C@H]2SCC3NC(=O)NC32)cc1` (some centres not stated), which EC50 is on record?
**A.** Its EC50 is 4.2 mM.

**Q.** For `CCN(CC)CCOC(=O)c1ccc(NC(=O)OCCOCCOCCOCCOCCOCCO)cc1`, which EC50 is on record?
**A.** The EC50 was 6.6 mM.

**Q.** For `CCN(CC)CCOC(=O)c1ccc(N)cc1` [PROCAINE], which EC50 is on record?
**A.** Its EC50 is 1.3 mM.

**Q.** Which EC50 does the source give for `CCN(CC)CCOC(=O)c1ccc(NC(=O)OCCOCCOCCOC(=O)CCCC[C@H]2SCC3NC(=O)NC32)cc1` (some centres not stated) here?
**A.** The EC50 was 2.4 mM.

**Q.** With `CCCCNc1ccc(C(=O)OCCN(C)C)cc1` [TETRACAINE] as the molecule, how does the EC50 read?
**A.** Its EC50 is 0.012 mM.

**Q.** For `CCN(CC)CCOC(=O)c1ccc(NC(=O)OCCOCCOCCO)cc1`, which EC50 is on record?
**A.** The EC50 was 3.2 mM.
